Measurements reported in patent US20230183239A1, “ECTONUCLEOTIDE PYROPHOSPHATASE-PHOSPHODIESTERASE 1 (ENPP-1) INHIBITORS AND USES THEREOF” (AbbVie Inc., priority 2017, published 2023).
Like-named read-outs stand apart in the source and are kept apart here.

Experiments:
Type in all cases: biochemical
ENPP1 [1] = target: T1, ENPP1 (Homo sapiens, UniProt P22413); assay: Indirect quantitation of 2',3'-cGAMP hydrolysis (AMP-Glo Assay kit)
T1 sequence (P22413 1-925): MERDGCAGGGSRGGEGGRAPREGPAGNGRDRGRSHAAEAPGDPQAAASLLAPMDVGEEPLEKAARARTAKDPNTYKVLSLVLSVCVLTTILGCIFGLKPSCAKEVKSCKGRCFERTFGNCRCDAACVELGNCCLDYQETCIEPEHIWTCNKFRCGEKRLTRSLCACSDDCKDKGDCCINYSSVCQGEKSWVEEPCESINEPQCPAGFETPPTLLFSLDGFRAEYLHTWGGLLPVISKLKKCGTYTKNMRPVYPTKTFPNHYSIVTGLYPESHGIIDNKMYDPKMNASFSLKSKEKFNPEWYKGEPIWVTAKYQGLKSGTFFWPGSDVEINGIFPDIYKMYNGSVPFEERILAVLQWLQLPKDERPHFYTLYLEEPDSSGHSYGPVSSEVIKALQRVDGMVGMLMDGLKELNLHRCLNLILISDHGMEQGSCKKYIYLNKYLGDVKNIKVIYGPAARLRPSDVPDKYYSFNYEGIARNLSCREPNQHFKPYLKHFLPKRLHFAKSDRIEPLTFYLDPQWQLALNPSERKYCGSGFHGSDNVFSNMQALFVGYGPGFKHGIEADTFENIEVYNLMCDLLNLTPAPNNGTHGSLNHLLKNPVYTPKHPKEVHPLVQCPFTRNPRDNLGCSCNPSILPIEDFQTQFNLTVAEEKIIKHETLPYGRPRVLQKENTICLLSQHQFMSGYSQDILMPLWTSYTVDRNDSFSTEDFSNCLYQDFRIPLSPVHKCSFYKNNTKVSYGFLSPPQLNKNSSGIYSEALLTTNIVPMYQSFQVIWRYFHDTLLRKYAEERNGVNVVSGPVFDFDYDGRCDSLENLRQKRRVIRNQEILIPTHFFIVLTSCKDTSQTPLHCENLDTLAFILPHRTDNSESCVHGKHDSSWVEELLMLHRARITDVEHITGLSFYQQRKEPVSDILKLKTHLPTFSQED

ENPP1 [2] = target: T1, ENPP1; assay: ENPP1 enzyme assay with cGAMP substrate (AMP-Glo); design: purchased R&D Systems; settings: for inhibition at 10 µM: 10 µM compound; for inhibition at 1 µM: read-out: cGAMP: % Inhibition at 1 µM
Text: Example B1: ENPP1 Enzyme Assay With cGAMP Substrate
Ectonucleotide pyrophosphatase/phosphodiesterase 1 (ENPP-1) is a transmembrane glycoprotein that hydrolyzes nucleotides and nucleotide derivatives with the formation of nucleoside-5’-monophosphates. […] The 5’-AMP formed from the reaction is detected using the AMP-Glo® Kit (Promega). The assay kit contains two reagents. The first reagent terminates the enzymatic reaction, removes ATP (using adenylyl cyclase), and converts 5’-AMP produced into ADP (using polyphosphate: AMP phosphotransferase). The second reagent converts ADP to ATP (using adenylate kinase) and generates light from ATP using the luciferin/luciferase reaction.
Different concentrations of ENPP1 inhibitors are pre-incubated with 5 ng/well of human ENPP-1 enzyme (R&D Systems) for 15 minutes at 37° C. The reaction is initiated by adding 20 µM 2’3’-cGAMP and incubating for 30 minutes at 37° C. The final assay reaction mixture contains a buffer of 50 mM Tris pH 8.0, 250 mM NaCl, 0.5 mM CaCl2, 1 µM ZnCl2 and 1% DMSO. At the end of the incubation, the reaction is stopped by adding 12 µl of AMP-Glo reagent-1 and mixing the reaction uniformly for 5 minutes, followed by incubation at room temperature for one hour. Then 25 µl of AMP Glo reagent-2 is added to the reaction, mixed uniformly with a pipette, and incubated at room temperature for one hour to convert the ADP formed from reagent-1 to ATP and light. The generated light is measured in a Perkin Elmer Victor® instrument.
(§1) The IC50 values for percent inhibition versus compound concentration are determined by fitting the inhibition curves using a four-parameter variable slope model in GraphPad Prism® software. Ki values are derived from the IC50 values using the Cheng-Prusoff equation: […]

ENPP1 [3] = target: T1, ENPP1; assay: ENPP1 enzyme assay with TMP-pNP substrate; design: purchased R&D Systems; settings: for inhibition at 10 µM: read-out: TMP-pNP: % inhibition at 10 uM, 10 uM compound; for Ki: Ki from IC50 by Cheng-Prusoff
Procedure: Example B2: ENPP1 Enzyme Assay With TMP-pNP Substrate
Ectonucleotide pyrophosphatase/phosphodiesterase 1 (ENPP-1) is a transmembrane glycoprotein that hydrolyzes nucleotides and nucleotide derivatives with the formation of nucleotide-5’-monophosphates. ENPP-1 hydrolyzes thymidine 5’monophosphate p-nitrophenyl ester (TMP-pNP) to nucleotide-5’-monophosphate and p-nitrophenol, which is a chromogenic product. The amount of p-nitrophenol product formed is measured using its absorbance at 405 nm, which is directly proportional to enzyme activity. Different concentrations of inhibitors are pre-incubated with 15 ng/well of human ENPP-1 enzyme (R&D Systems) for 15 minutes at 37° C. The reaction is initiated by adding 200 µM TMP-pNP and incubating for 10 minutes at 37° C. The final assay reaction mixture contains a buffer of 50 mM Tris pH 8.0, 250 mM NaCl, 0.5 mM CaCl2, 1 µM ZnCl2 and 1% DMSO. The amount of product formed is measured directly in a Tecan® spectrophotometer. Maximal activity control samples (containing enzyme, substrate, and buffer in the absence of ENPP1 inhibitors: MAX) and background control samples (containing enzyme, substrate, and buffer plus a fully inhibitory concentration (3 µM) of the reference ENPP1 Inhibitor, Example 333: MIN) are simultaneously evaluated in order to calculate the percent inhibition at each compound concentration as follows:
as §1, with “curves (percent inhibition versus inhibitor concentration)” for “curves”

ENPP1 [4] = target: T1, ENPP1; assay: ENPP1 enzyme assay with AMP-pNP substrate (hydrolysis of ATP analog)
In short: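 Reactions ran 20 min at 37 °C, pH 8.5 Tris buffer with NaCl, CaCl2, ZnCl2, using 300 µM AMP-pNP and 60 ng/well recombinant human ENPP1; inhibitor range 10 µM–30 pM, duplicates.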

ENPP1 [5] = target: T1, ENPP1; assay: Substrate selectivity ratio, inhibition of cGAMP hydrolysis versus ATP hydrolysis; settings: ratio Ki AMP-pNP / Ki cGAMP
Procedure: The selectivity ratios for inhibition of cGAMP hydrolysis versus ATP hydrolysis were then calculated as follows: […]

[6] = cGAMP substrate, Ki from IC50 by Cheng-Prusoff, read-out: ENPP1 Inhibition -cGAMP: Ki
[7] = cGAMP substrate, Ki from IC50 by Cheng-Prusoff, read-out: cGAMP: Ki

Row | Ki (ENPP1 [1]; [6]) [nM] | inhibition at 10 µM (ENPP1 [3]) [%] | SMILES | inhibition at 1 µM (ENPP1 [2]) [%] | other results
1 | > 1000 | < 25 | NS(=O)(=O)NCCC1CCN(c2ncnc3nc[nH]c23)CC1 [Example 23, N-(2-(1-(9H-purin-6-yl)piperidin-4-yl)ethyl)sulfamide] | – | inhibition at 10 µM (ENPP1 [2]; cGAMP substrate): < 25%
2 | – | – | CCN(C)S(=O)(=O)NCCC1CCN(c2ncnc3cc(OC)c(OC)cc23)CC1 [Example 42, 2-(1-(6,7-dimethoxyquinazolin-4-yl)piperidin-4-yl)ethan-1-amino(N-ethyl-N-methyl)sulfonamide] | – | Ki (ENPP1 [4]): > 1000 nM; Ki (ENPP1 [1]): 100 to 1000 nM; Substrate Selectivity: Ki_AMP-pNP/Ki_cGAMP (ENPP1 [5]): >96.1; Ki (ENPP1 [2]): 100 to 1000 nM; Ki (ENPP1 [3]): > 1000 nM
3 | > 1000 | < 25 | Cc1cncnc1N1CCC(CCNS(N)(=O)=O)CC1 [Example 17, N-(2-(1-(5-methylpyrimidin-4-yl)piperidin-4-yl)ethyl)sulfamide] | – | inhibition at 10 µM (ENPP1 [2]; cGAMP substrate): < 25%
4 | 100 to 1000 | – | NS(=O)(=O)NCCC1CCN(c2ncnc3ccccc23)CC1 [Example 35, N-(2-(1-(quinazolin-4-yl)piperidin-4-yl)ethyl)sulfamide] | – | inhibition at 10 µM (ENPP1 [2]; cGAMP substrate): > 75%; Ki (ENPP1 [2]; [7]): 100 to 1000 nM; Ki (ENPP1 [3]): > 1000 nM
5 | > 1000 | < 25 | NS(=O)(=O)NCCC1CCN(c2ccncn2)CC1 [Example 18, N-(2-(1-(pyrimidin-4-yl)piperidin-4-yl)ethyl)sulfamide] | – | –
6 | – | – | NS(=O)(=O)NCCC1CCN(c2ccnc(Nc3ccccn3)n2)CC1 [Example 11, N-(2-(1-(2-(pyridin-2-ylamino)pyrimidin-4-yl)piperidin-4-yl)ethyl)sulfamide] | < 25 | Ki (ENPP1 [4]): > 1000 nM; Ki (ENPP1 [1]): > 1000 nM
7 | 100 to 1000 | 50 to 75 | COc1cc2nc(N(C)C)nc(N3CCC(CCNS(N)(=O)=O)CC3)c2cc1OC [Example 3, N-(2-(1-(2-(dimethylamino)-6,7-dimethoxyquinazolin-4-yl)piperidin-4-yl)ethyl)sulfamide] | – | inhibition at 1 µM (ENPP1 [2]; 1 µM compound, cGAMP substrate): 25 to 50%
8 | > 1000 | < 25 | Cn1cnc2c(N3CCC(CCNS(N)(=O)=O)CC3)ncnc21 [Example 24, N-(2-(1-(9-methyl-9H-purin-6-yl)piperidin-4-yl)ethyl)sulfamide] | – | –
9 | – | – | COc1cc2ncnc(N3CCN(CCNS(N)(=O)=O)CC3)c2cc1OC [Example 40, N-(2-(4-(6,7-dimethoxyquinazolin-4-yl)piperazin-1-yl)ethyl)sulfamide] | > 75 | Ki (ENPP1 [4]): 100 to 1000 nM; Ki (ENPP1 [1]): < 100 nM; Substrate Selectivity: Ki_AMP-pNP/Ki_cGAMP (ENPP1 [5]): 24.1
10 | 100 to 1000 | – | COc1cc2ncnc(N3CCC(NS(N)(=O)=O)CC3)c2cc1OC [Example 51, N-(1-(6,7-dimethoxyquinazolin-4-yl)piperidin-4-yl)sulfamide] | – | inhibition at 1 µM (ENPP1 [2]; 1 µM compound, cGAMP substrate): > 75%; Ki (ENPP1 [2]; [7]): 100 to 1000 nM
11 | > 1000 | – | COc1cc(C(=O)N2CCC(CCNS(N)(=O)=O)CC2)c(N(C)C)cc1OC [Example 45, N-(2-(1-(2-(dimethylamino)-4,5-dimethoxybenzoyl)piperidin-4-yl)ethyl)sulfamide] | – | inhibition at 1 µM (ENPP1 [2]; 1 µM compound, cGAMP substrate): < 25%
12 | > 1000 | – | COc1cccc(C(=O)N2CCC(CCNS(N)(=O)=O)CC2)c1 [Example 48, N-(2-(1-(3-methoxybenzoyl)piperidin-4-yl)ethyl)sulfamide] | – | inhibition at 1 µM (ENPP1 [2]; 1 µM compound, cGAMP substrate): 25 to 50%

Row | SMILES | Ki (ENPP1 [1]; [6]) [nM] | inhibition at 10 µM (ENPP1 [3]) [%] | inhibition at 1 µM (ENPP1 [2]) [%] | other results
13 | NS(=O)(=O)NCCC1CCN(c2cc(-c3ccc4ncoc4c3)ncn2)CC1 [Example 9, N-(2-(1-(6-(benzo[d]oxazol-6-yl)pyrimidin-4-yl)piperidin-4-yl)ethyl)sulfamide] | > 1000 | – | < 25 | –
14 | NS(=O)(=O)NCCC1CCN(c2ccnc(Nc3ccncc3)n2)CC1 [Example 13, N-(2-(1-(2-(pyridin-4-ylamino)pyrimidin-4-yl)piperidin-4-yl)ethyl)sulfamide] | > 1000 | – | 25 to 50 | –
15 | COc1cc2nc(-c3ccncc3)nc(N3CCC(CCNS(N)(=O)=O)CC3)c2cc1OC [Example 6, N-(2-(1-(6,7-dimethoxy-2-(pyridin-4-yl)quinazolin-4-yl)piperidin-4-yl)ethyl)sulfamide] | 100 to 1000 | – | 25 to 50 | Ki (ENPP1 [2]; [7]): 100 to 1000 nM; Ki (ENPP1 [3]): > 1000 nM
